Laboratory results from patent publication US11622961B2, “Combination therapies for treating cancer” (TESARO, INC., priority 2017, dated 2023).

What was measured:
[1] = test system: MDA-MB436 breast carcinoma cell line; test: MDA-MB436 HuNOG-EXL mice treated with niraparib and BLZ945: tumor volume; assay type: in vivo; conditions: 200 mg/kg BLZ945 5 day on and 2 day off plus 80 mg/kg niraparib tosylate once daily, oral; FIG. 6A, 6B (day 26)
Description: This example describes the effects of treatment with an agent that inhibits PARP together with an agent that regulates activity in the tumor microenvironment in a mouse model of breast cancer. HuNOG-EXL mice inoculated with MDA-MB436 breast carcinoma cell line were orally administered: i) 80 mg/kg of niraparib tosylate once daily; ii) 200 mg/kg BLZ945 (an anti-CSF-1R that binds to CSF1R and inhibits CSF1R-mediated signal transduction pathways in tumor associated macrophages) on a 5 day on and 2 day off schedule; or iii) 80 mg/kg of niraparib tosylate and 200 mg/kg BLZ945 with the same dosing schedule as the single agent groups. Control mice were administered an isotype control antibody twice weekly via intraperitoneal injection.
Tumor volumes were recorded twice in a week with a gap of 2-3 days in between two measurements until tumor volume reached 600-1000 mm^3 in the control mice.

[2] = test system: primary Murine skin cancer model mSK6005; conditions: 50 mg/kg orally once daily for 21 days, compared to vehicle treated mice
Description: This example describes the effects of treatment with an agent that inhibits PARP signaling on tumor microenvironment in a mouse model of colorectal cancer. 50 mg/kg of niraparib or vehicle (0.5% methylcellulose) was orally administered once daily for 21 days to C57BL/6 mice inoculated with primary Murine skin cancer model mSK6005 fragment developed from Apc^Min/J heterozygous background. Formalin-fixed, paraffin-embedded (FFPE) blocks were prepared from tumor samples collected from the mice. Immunohistochemistry (IHC) staining was performed on FFPE samples to assess expression of various markers for immune response in the tumor samples. Five fields in each staining, without necrosis, were randomly selected and imaged at 20× magnification.
All the images were analyzed with Image J software. For CD4, CD8, and FoxP3 IHC, positive cells were counted and the average of 5 fields positive cell numbers was taken as the score value of each case. For Iba1 IHC, the percentage of Iba1 positive expression area or mean gray was measured and taken as the score value of each case. The percentages of tumor cells at different intensity levels were evaluated according to the calculation below. Total Score=(% at 0)×0+(% at 1)×1+(% at 2)×2+(% at 3)×3

MDA-MB-436 = test system: MDA-MB-436
Excerpt: FIG. 5A depicts percentage of Ki67-positive CD4 and CD8 positive cells among total CD3 population in control or niraparib treated mice as assessed by flow cytometry.
FIG. 5B depicts tumor volume in MDA-MB-436 huNOG-EXL mice treated with niraparib or control.

CTLA-4 = target: T1, CTLA-4 (Homo sapiens, UniProt P16410); conditions: biopsy samples taken after tremelimumab treatment; cited from earlier work
T1 construct: host or cells: metastatic melanoma patients (endogenous CTLA-4)
T1 sequence (P16410 36-223): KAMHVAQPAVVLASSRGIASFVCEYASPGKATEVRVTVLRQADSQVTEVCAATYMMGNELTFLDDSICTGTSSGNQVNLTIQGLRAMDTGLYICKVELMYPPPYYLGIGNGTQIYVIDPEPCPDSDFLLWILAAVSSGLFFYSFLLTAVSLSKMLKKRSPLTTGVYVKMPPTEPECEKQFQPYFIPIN

[3] = crystalline solid; cited from earlier work

Which “anti-tumor activity of the combination (tumor volume)” value [1] does the source give for `CNC(=O)c1cc(Oc2ccc3nc(N[C@@H]4CCCC[C@H]4O)sc3c2)ccn1` [BLZ945] here?
Its value is “enhances anti-tumor activity of niraparib”.

For `NC(=O)c1cccc2cn(-c3ccc([C@@H]4CCCNC4)cc3)nc12` [niraparib, (3S)-3-[4-{7-(aminocarbonyl)-2H-indazol-2-yl}phenyl]piperidine], which “expression of CD4 in tumor samples (IHC)” value [2] is on record?
Its value is “Increased expression”.

And the “expression of CD8 in tumor samples (IHC)” value [2]?
Its value is “Increased expression”.

And the “expression of FoxP3 in tumor samples (IHC)” value [2]?
Its value is “Increased expression”.

And the “expression of Iba1 in tumor samples (IHC)” value [2]?
The value was “Increased expression”.

What about the tumor growth (MDA-MB-436; 35 mg/kg QD×5/week (FIG. 5B)) of the same molecule?
Its tumor growth is “reduction of tumor growth”.

What about the “percentage of CD8+ cells” value (MDA-MB-436; 35 mg/kg QD×5/week, flow cytometry (FIG. 5A)) of the same molecule?
Its value is “increased percentage of CD8+ cells”.

For tremelimumab: anti-CTLA-4 antibody, which “intratumoral infiltration by CD8+ cells” value (CTLA-4) is on record?
Its value is “highly significant increase”.

Which “hygroscopicity of drug substance” value [3] does the source give for `Cc1ccc(S(=O)(=O)O)cc1.NC(=O)c1cccc2cn(-c3ccc([C@@H]4CCCNC4)cc3)nc12.O` [Niraparib tosylate monohydrate, (3 S)-3-[4-{7-(aminocarbonyl)-2H-indazol-2-yl}phenyl]piperidine tosylate monohydrate] here?
Its value is “non-hygroscopic”.
